In patent US20190134120A1, “METHODS FOR THE TREATMENT OF BLADDER CANCER” (Viralytics Limited, priority 2013, published 2019):
Values after ≈ are worked out from the molar mass of the structure shown.

Experiments:
[1] = tested on: CVA21; assay: CVA21 viral replication in 5637 cells on exposure to MMC (TCID50 titration on SK-MEL-28); format: cell-based; settings: CVA21 MOI 3, 0.4375 or 0.875 ug/ml Mitomycin C, 24 or 48 hours
Experimental: Monolayers of 5637 bladder cancer cells were plated and incubated at 37° C./5% CO2 overnight. The media was removed, and CVA21 added at an MOI of 3 in 10% FCS medium containing 0, 0.4375 or 0.875 ug/ml Mitomycin C. The cells were then incubated at 37° C. for 24 or 48 hours. The plates were then frozen at −80° C. for 1 hour or o/n and then thawed after which cell CVA21 lysate was serially diluted 1:10 in 2% DMEM. The different concentrations of lysate were then added to SK-MEL-28 cells which had previously been plated at 1×10^4 cells per well (100 μL) in a 96 well plate in 10% DMEM. The assay was then incubated at 37° C. for 5 days, after which the media was removed from the cells and 100 ul of 0.1% Glutaldehyde (Sigma) in PBS was added. After an incubation of 10 mins at RT, the Glutaldehyde solution was removed and 100 ul of 0.1% w/v Crystal Violet solution (in 20% Ethanol) was added in order to visualise the cells. Following another incubation of 10 mins at RT the excess Crystal Violet was removed with tap water. TCID50 was calculated by the Spearman & Kärber algorithm as described in Hierholzer & Killington (1996), Virology Methods Manual, p. 374.

[2] = tested on: DAF; assay: QPCR for DAF expression after Mitomycin C; format: cell-based, Human; settings: 5637 cancer cell line exposed to Mitomycin C
Experimental: (§1) FIGS. 4A-B: QPCR for ICAM-1/DAF expression. FIG. 4a) On 5637 & T24 cancer cell lines 24 hrs after irradiation (Gy 4-10). FIG. 4b) On 5637 cancer cell line exposed to Mitomycin C.
(§2) Exposure to the chemotherapy agent Mitomycin C, up-regulates both ICAM-1 and DAF at the RNA level (FIG. 4b). To mimic patient exposure to Mitomycin C T24, RU19-19 and 5637 cells were pulsed with drug for 1, 3, 7, 24 hrs and ICAM-1 and DAF expression was measured by FACS analysis at 24 hrs.

[3] = tested on: ICAM-1; assay: QPCR for ICAM-1 expression after Mitomycin C; format: cell-based, Human; settings: 5637 cancer cell line exposed to Mitomycin C
Experimental: as §1, §2

[4] = tested on: ICAM-1; assay: FACS analysis of ICAM-1 (CD54) expression after Mitomycin C pulse; format: cell-based, Human
Experimental: (§3) FIG. 5: FACS analysis of ICAM-1/DAF express in bladder cancer cell line pulse with Mitomycin C (×0.5 fold IC50×1, ×2) for 1, 3, 7 and 24 hrs.
(§4) In brief, bladder cancer cells were plated at 5×10^5 cells per well (2 ml) of a 6 well tray and incubated at 37° C. for 24 hrs. The cells were treated with Mitomycin C (2× fold IC50 1× fold IC50, 0.5× fold IC50) and each concentration incubated at 37° C. for 1, 3, 7 and 24 hrs. Therefore T24 cells were treated 0.75, 0.375, 0.1876 ug/ml Mitomycin C, 5637 cells were treated with 0.68, 0.34, 0.17 ug/ml Mitomycin C and KU19-19 cells were treated with 1.4876, 0.7438, 0.3719 ug/ml. The cells were trypsinised and centrifuged for 3 mins at 1500 rpm to a pellet and re-suspended in FACS Buffer (PBS containing 10% BSA and 1% sodium azide). 100 ul of cells were added to appropriate wells in a 96-well round-bottomed plate. Antibodies were prepared at 1:10 in FACS buffer CD54 PE (BD: 347977) mIgG2b, CD55 PE (BD: 555694) mIgG2a and Isotype controls. […] Samples were read on a MACSQuant™ Analyzer (Bench top flow cytometer).
as §2

[5] = tested on: DAF; assay: FACS analysis of DAF (CD55) expression after Mitomycin C pulse; format: cell-based, Human; settings: T24, RU19-19 and 5637 cells; short pulse (1-3 hrs); measured at 24 hrs
Experimental: as §3, §4, §2

[6] = tested on: 5637 cells; assay: Mitomycin C IC50, 5637 cells; format: cell-based, Human; settings: 1x fold IC50 treatment concentration
[7] = tested on: T24 cells; assay: Mitomycin C IC50, T24 cells; format: cell-based, Human; settings: 1x fold IC50 treatment concentration
[8] = tested on: KU19-19 cells; assay: Mitomycin C IC50, KU19-19 cells; format: cell-based, Human; settings: 1x fold IC50 treatment concentration

## CO[C@@]12[C@H](COC(N)=O)C3=C(C(=O)C(C)=C(N)C3=O)N1C[C@@H]1N[C@@H]12 [Mitomycin C, mitomycin C]
[1]
  effect on CVA21 viral replication: enhanced viral replication
[2]
  DAF expression at the RNA level: up-regulates
[3]
  ICAM-1 expression at the RNA level: up-regulates
[4]; T24, RU19-19 and 5637 cells, short pulse (1-3 hrs), measured at 24 hrs
  ICAM-1 expression by FACS: strongly amplified
[4]; one hour pulse of MMC, present from at least 4 hours after exposure
  ICAM-1 amplification: strong ICAM-1 amplification
[5]
  DAF expression by FACS: strongly amplified
[6]
  IC50: 0.34 µg/mL (≈ 1.02 µM)
[7]
  IC50: 0.375 µg/mL (≈ 1.12 µM)
[8]
  IC50: 0.7438 µg/mL (≈ 2.22 µM)
